Where a SMILES comes first, the peptide text is derived from it. [ ]: non-standard residue; d: D form. Dolaproine = CO[C@@H]([C@@H]1CCCN1)[C@@H](C)C(=O)O; Dil = CC[C@H](C)[C@H](NC)[C@@H](CC(=O)O)OC; NMeV = CN[C@H](C(=O)O)C(C)C
How the values were obtained:
Assay type in all cases: cell-based, human
[1] = tested on: MOLP8 cells; test: CellTiter-Glo cell viability, MOLP8; details: MOLP8 cells, 6 days; for LD50 / GI50: CellTiter-Glo; for GI50: read-out: GI50; for RminAve: negative = cell death vs T0
[2] = tested on: MM1.S cells; test: CellTiter-Glo cell viability, MM1.S; details: MM1S cells, 6 days; for LD50 / GI50: CellTiter-Glo; for GI50: read-out: GI50; for RminAve: negative = cell death vs T0
[3] = tested on: LP-1 cells; test: 6-day CellTiter-Glo cell viability, LP-1; details: LP1 cells, 6 days; for LD50 / GI50: CellTiter-Glo; for GI50: read-out: GI50; for RminAve: negative = cell death vs T0
[4] = tested on: KMS-11 cells; test: 6-day CellTiter-Glo cell viability, KMS-11; details: KMS11 cells, 6 days; for LD50 / GI50: CellTiter-Glo; for GI50: read-out: GI50; for RminAve: negative = cell death vs T0
[5] = tested on: AMO-1 cells; test: 6-day CellTiter-Glo cell viability, AMO-1; details: AMO1 cells, 6 days; for LD50 / GI50: CellTiter-Glo; for GI50: read-out: GI50; for RminAve: negative = cell death vs T0
[6] = tested on: U266B1 cells; test: 6-day CellTiter-Glo cell viability, U266B1; details: U266B1 cells, 6 days; for LD50 / GI50: CellTiter-Glo; for GI50: read-out: GI50; for RminAve: negative = cell death vs T0
[7] = tested on: EJM cells; test: 6-day CellTiter-Glo cell viability, EJM; details: EJM cells, 6 days; for LD50 / GI50: CellTiter-Glo; for GI50: read-out: GI50; for RminAve: negative = cell death vs T0
[8] = tested on: RPMI-8226 cells; test: 6-day CellTiter-Glo cell viability, RPMI-8226; details: RPMI8226 cells, 6 days; for LD50 / GI50: CellTiter-Glo; for GI50: read-out: GI50; for RminAve: negative = cell death vs T0
[9] = tested on: NCI-H929 cells; test: CellTiter-Glo cell viability, NCI-H929 (normal serum); details: NCIH929 cells, 6 days; for LD50 / GI50: CellTiter-Glo; for GI50: read-out: GI50; for RminAve: negative = cell death vs T0
[10] = tested on: MM1.R cells; test: CellTiter-Glo cell viability, MM1.R; details: MM1R cells, 6 days; for LD50 / GI50: CellTiter-Glo; for GI50: read-out: GI50; for RminAve: negative = cell death vs T0
[11] = tested on: OPM2 cells; test: CellTiter-Glo cell viability, OPM2 (normal serum); details: OPM2 cells, 6 days; for LD50 / GI50: CellTiter-Glo; for GI50: read-out: GI50; for RminAve: negative = cell death vs T0

## CC[C@H](O)[C@@H](C)[C@H]1O[C@@H]1C[C@@](C)(O)/C=C/C=C(\C)[C@H]1OC(=O)C[C@H](O)CC[C@@](C)(O)[C@@H](OC(=O)N2CCN(C3CCCCCC3)CC2)/C=C/[C@@H]1C [E7107 (D11)]
[1]
  AUC (nM * % relative viability): 361.7797 nM * % relative viability
  LD50: 16.8329 nM
  GI50: 2.43 nM
  RminAve: −99.6765%
[2]
  AUC (nM * % relative viability): 380.5913 nM * % relative viability
  LD50: 18.155 nM
  GI50: 3.51 nM
  RminAve: −99.7761%
[3]
  AUC (nM * % relative viability): 313.7701 nM * % relative viability
  LD50: 6.2485 nM
  GI50: 2.2 nM
  RminAve: −99.6676%
[4]
  AUC (nM * % relative viability): 382.1527 nM * % relative viability
  LD50: 13.1801 nM
  GI50: 5.03 nM
  RminAve: −99.2702%
[5]
  AUC (nM * % relative viability): 487.7156 nM * % relative viability
  LD50: 50.4287 nM
  GI50: 14.9 nM
  RminAve: −96.8372%
[6]
  AUC (nM * % relative viability): 422.0108 nM * % relative viability
  LD50: 18.2733 nM
  GI50: 8.76 nM
  RminAve: −95.1886%
[7]
  AUC (nM * % relative viability): 434.2294 nM * % relative viability
  LD50: 22.175 nM
  GI50: 9.45 nM
  RminAve: −99.071%
[8]
  AUC (nM * % relative viability): 359.1272 nM * % relative viability
  LD50: 10.8782 nM
  GI50: 3.59 nM
  RminAve: −99.7762%
[9]
  AUC (nM * % relative viability): 321.415 nM * % relative viability
  LD50: 5.836 nM
  GI50: 2.81 nM
  RminAve: −99.8426%
[10]
  AUC (nM * % relative viability): 374.4113 nM * % relative viability
  LD50: 16.5876 nM
  GI50: 3.33 nM
  RminAve: −99.831%
[11]
  AUC (nM * % relative viability): 289.9829 nM * % relative viability
  LD50: 4.7541 nM
  GI50: 1.67 nM
  RminAve: −99.6884%

## CC[C@H](C)[C@@H]([C@@H](CC(=O)N1CCC[C@H]1[C@H](OC)[C@@H](C)C(=O)N[C@@H](Cc1ccccc1)C(=O)O)OC)N(C)C(=O)[C@@H](NC(=O)[C@@H](NC)C(C)C)C(C)C [MMAF] (H-[NMeV]V[Dil][Dolaproine]F-OH)
[1]
  AUC (nM * % relative viability): 788.7538 nM * % relative viability
  LD50: 4689.579 nM
  GI50: 254 nM
  RminAve: −58.9492%
[2]
  AUC (nM * % relative viability): 726.0671 nM * % relative viability
  LD50: 615.7256 nM
  GI50: 296 nM
  RminAve: −99.8301%
[3]
  AUC (nM * % relative viability): 724.5606 nM * % relative viability
  LD50: 761.0403 nM
  GI50: 223 nM
  RminAve: −97.9742%
[4]
  AUC (nM * % relative viability): 706.6578 nM * % relative viability
  LD50: 490.3828 nM
  GI50: 235 nM
  RminAve: −98.8009%
[5]
  AUC (nM * % relative viability): 640.894 nM * % relative viability
  LD50: 243.7059 nM
  GI50: 101 nM
  RminAve: −99.5356%
[6]
  AUC (nM * % relative viability): 661.824 nM * % relative viability
  LD50: 192.3371 nM
  GI50: 67.8 nM
  RminAve: −89.2656%
[7]
  AUC (nM * % relative viability): 600.0131 nM * % relative viability
  LD50: 194.3761 nM
  GI50: 51.5 nM
  RminAve: −98.8551%
[8]
  AUC (nM * % relative viability): 714.2788 nM * % relative viability
  LD50: 557.1533 nM
  GI50: 224 nM
  RminAve: −95.3537%
[9]
  AUC (nM * % relative viability): 734.8893 nM * % relative viability
  LD50: 676.4428 nM
  GI50: 321 nM
  RminAve: −99.782%
[10]
  AUC (nM * % relative viability): 721.5643 nM * % relative viability
  LD50: 584.6173 nM
  GI50: 281 nM
  RminAve: −99.7818%
[11]
  AUC (nM * % relative viability): 740.134 nM * % relative viability
  LD50: 723.9832 nM
  GI50: 348 nM
  RminAve: −99.7203%

## N.N.[Cl][Pt][Cl] [cisplatin]
[1]
  GI50: 5070 nM
  RminAve: −99.8824%
[2]
  GI50: 10200 nM
  RminAve: −99.8687%
[3]
  GI50: 50100 nM
  RminAve: −97.8184%
[4]
  GI50: 14400 nM
  RminAve: −99.8489%
[5]
  GI50: 8590 nM
  RminAve: −99.8648%
[6]
  GI50: 39900 nM
  RminAve: −99.4122%
[7]
  GI50: 30100 nM
  RminAve: −99.8757%
[8]
  GI50: 16300 nM
  RminAve: −99.2206%
[9]
  GI50: 21400 nM
  RminAve: −99.945%
[10]
  GI50: 7300 nM
  RminAve: −99.9355%
[11]
  GI50: 17000 nM
  RminAve: −99.784%
